In PMC10652874, “Investigation into the mechanism of action of the antimicrobial peptide epilancin 15X” (Frontiers in Microbiology, 2023):

Key:
[1] = tested on: S. carnosus TM300; experiment: Bright field (Airyscan) microscopy; format: cell-based, Staphylococcus carnosus; conditions: S. carnosus TM300, 0.5 MIC
[2] = Liposome leakage assay using flow cytometry (HaloTag / AF488 ligand); format: biochemical; conditions: 1 μM peptide, 37°C, 1 h
[3] = tested on: S. carnosus TM300; experiment: Lipid protection assay (MIC with lipid-supplemented growth medium); format: cell-based, Staphylococcus carnosus; conditions: for Epilancin MIC: S. carnosus TM300
Procedure: MIC determination was performed in a 96-well microtiter plate as described previously ([Wu et al., 2019]). Sensitive bacterial culture was grown in the appropriate medium (BHI for S. carnosus; LB for B. subtilis) at 37°C overnight. The culture was diluted to 10^5 CFU/mL in medium in each well. Epilancin 15X or its analog was dissolved in water and serially diluted to obtain final concentrations of 20, 10, 5, 2.5, 1.25, 0.625, 0.3125, 0.156, 0.078, 0.039, 0.019, and 0.009 μM. OD600 readings were obtained after 18 h using a Synergy H4 Hybrid Multi-Mode Microplate Reader (BioTeK). Cell-free untreated medium, and untreated cell culture were used as negative controls. The MIC of nisin against B. subtilis BSF2470 was determined following the same methods.
The possibility of direct interaction between epilancin 15X and specific lipids was examined through lipid protection assays. […] In an agar diffusion assay, purified S. aureus LTA antagonized the bioactivity of epilancin 15X but not nisin A (Supplementary Figure S5A).

[4] = tested on: LiaRS response in B. subtilis BSF2470; experiment: LiaRS disk diffusion reporter assay (β-galactosidase, X-Gal); format: cell-based, Bacillus subtilis; conditions: 37°C overnight
Procedure: The LiaRS response was determined via disk diffusion as described previously ([Mascher et al., 2004]). Briefly, B. subtilis strain BSF2470 was grown in LB supplemented with erythromycin (1 μg/mL) overnight at 37°C with shaking. A total of 20 μL of overnight culture was mixed with 100 μL of 20 mg/mL X-Gal (dissolved in DMF) and 5 mL of 0.7% soft LB agar then poured onto a 1.5% LB agar base. The plates were allowed to cool and dry at room temperature for 20 min. The desired molecule was either spotted on a filter paper disk and placed on top of the agar or directly spotted on the agar. The following molecules were tested: ampicillin, 0.5 μL on filter disk, 1 μL directly spotted, 100 mg/mL; compound 1771/LtaS-IN-1, 4 μL, 20 mM (dissolved in DMSO); epilancin 15X, 4 μL, 5 mM; vancomycin, 1 μL, 100 mg/mL; nisin, 4 μL, 2 mM; bacitracin, 4 μL on filter disk, 5 μL directly spotted, 100 mg/mL; water, 5 μL; magainin 2, 10 μL, 1 mM; melittin, 10 μL, 1 mM. The plate was incubated at 37°C overnight. After overnight incubation, the plate was imaged. Compound 1771 (CS-0114233) was purchased from ChemScene LLC.
To investigate the effect of epilancin 15X on the cell envelope, we employed the two-component LiaRS reporter system in B. subtilis (lipid II cycle interfering antibiotic response regulator and sensor; [Mascher et al., 2004]). Briefly, the LiaRS assay is a disk diffusion assay used to screen for the ability of compounds to induce β-galactosidase expression in engineered B. subtilis BSF2470 ([Mascher et al., 2004]). Molecules that produce a blue ring around the edge of the zone of growth inhibition are believed to interfere with the lipid II cycle ([Hachmann et al., 2009]). […] The compound 1771, also called LtaS-IN-1, inhibits lipoteichoic acid (LTA) synthesis ([Richter et al., 2013]) and to the best of our knowledge has not been tested in the LiaRS assay.

[5] = tested on: S. carnosus TM300; experiment: Killing kinetics (CFU counting); format: cell-based, Staphylococcus carnosus; conditions: S. carnosus TM300, mid-log, 1x and 4x MIC, 30-180 min, triplicate
Procedure: S. carnosus TM300 and B. subtilis BSF2470 (1A980) cell cultures were grown to mid-log phase in BHI and LB broth, respectively. […] At each time point, an aliquot of […] treated-culture was serial-diluted and placed on BHI agar plates for S. carnosus and LB agar plates for B. subtilis. The plates were grown for 1 day at 37°C and the colonies were counted. Each experiment was performed in triplicate and untreated cell culture was used as the negative control.

[6] = B. subtilis LTA (-) added, ~100 µM
[7] = S. aureus LTA (-) added, ~100 µM

In the case of Epilancin 15X, the “aggregation phenotype of cells (brightfield)” value [1] is reported as “Aggregation and chaining of cells was observed”, the “fluorescence signal (pore formation)” value ([2]; POPC-cholesterol liposomes with 0.1% lipid II) is reported as “did not induce pore formation” and the “fluorescence signal (pore formation) compared to buffer control” value ([2]; POPC-cholesterol liposomes without lipid II) is reported as “no increase in fluorescence signal”. For the same substance, the “Increase in MIC compared to WT” value [3, 6] was 8 X, the “Increase in MIC compared to WT” value ([3]; Cardiolipin (-) added, 130 µM) was 8 X and the “Increase in MIC compared to WT” value ([3]; DGDG added, 100 µM) was “did not display any protection affect”. For the same substance, the “Increase in MIC compared to WT” value ([3]; POPC added, 130 µM) was “did not display any protection affect”, the “Increase in MIC compared to WT” value ([3]; POPE added, 500 µM) was “did not display any protection affect” and the “Increase in MIC compared to WT” value ([3]; POPG (-) added, 100 µM) was 4 X. The “Increase in MIC compared to WT” value [3, 7] was greater than 16 X, the “Epilancin MIC” value [3, 6] was 2.5 µM and the “Epilancin MIC” value ([3]; Cardiolipin (-) added, 130 µM) was 2.5 µM. For the same substance, the “Epilancin MIC” value ([3]; DGDG added, 100 µM) was 0.31 µM, the “Epilancin MIC” value ([3]; POPC added, 130 µM) was 0.31 µM and the “Epilancin MIC” value ([3]; POPE added, 500 µM) was 0.31 µM. For the same substance, the “Epilancin MIC” value ([3]; POPG (-) added, final concentration 100 µM) was 1.25 µM, the “Epilancin MIC” value [3, 7] was greater than 5 µM and the “increase of epilancin 15X MIC” value ([3]; growth medium supplemented with 2.5 μM LTA isolated from S. aureus) was “at least 8 fold”. The “increase of epilancin 15X MIC” value ([3]; growth medium supplemented with POPG) was “at least 4 fold”, the “increase of epilancin 15X MIC” value ([3]; growth medium supplemented with cardiolipin) was “at least 4 fold” and the “LiaRS response (blue ring at the edge of the zone of inhibition)” value [4] was “did not induce a LiaRS response”. For the same substance, the “number of colony forming units (CFU)” value [5] was “significant decrease”.
